The values below come from US9145399B2, “Substituted bicyclic triazole derivatives as gamma secretase modulators” (Janssen Pharmaceuticals, Inc., priority 2010, dated 2015).

The subject of one data set is Aβ42. Nature of the data set: Screening for γ-secretase-modulating activity in SKNBE2 cells carrying APP 695 wild type: Aβ42 in cell supernatant (Alphalisa). The settings on record: Homo sapiens, SKNBE2, SKNBE2 cells carrying APP 695 wild type, overnight incubation. The format is cell-based. Here is the method: (§1) Pharmacology A) Screening of the Compounds of the Invention for γ-Secretase-Modulating Activity
(§2) Screening was carried out using SKNBE2 cells carrying the APP 695—wild type, grown in Dulbecco's Modified Eagle's Medium/Nutrient mixture F-12 (DMEM/NUT-mix F-12) (HAM) provided by Invitrogen (cat no. 10371-029) containing 5% Serum/Fe supplemented with 1% non-essential amino acids, 1-glutamine 2 mM, Hepes 15 mM, penicillin 50 U/ml (units/ml) en streptomycin 50 μg/ml. Cells were grown to near confluency.
(§3) The screening was performed using a modification of the assay as described in Citron et al (1997) Nature Medicine 3: 67. Briefly, cells were plated in a 384-well plate at 10^4 cells/well in Ultraculture (Lonza, BE12-725F) supplemented with 1% glutamine (Invitrogen, 25030-024), 1% non-essential amino acid (NEAA), penicillin 50 U/ml en streptomycin 50 μg/ml in the presence of test compound at different test concentrations. The cell/compound mixture was incubated overnight at 37° C., 5% CO2. The next day the media were assayed by two sandwich immuno-assays, for Aβ42 and Aβtotal.
(§4) Aβtotal and Aβ42 concentrations were quantified in the cell supernatant using the Aphalisa technology (Perkin Elmer). Alphalisa is a sandwich assay using biotinylated antibody attached to streptavidin coated donorbeads and antibody conjugated to acceptor beads. In the presence of antigen, the beads come into close proximity. The excitation of the donor beads provokes the release of singlet oxygen molecules that trigger a cascade of energy transfer in the acceptor beads, resulting in light emission. To quantify the amount of Aβ42 in the cell supernatant, monoclonal antibody specific to the C-terminus of Aβ42 (JRF/cAβ42/26) was coupled to the receptor beads and biotinylated antibody specific to the N-terminus of Aβ (JRF/AβN/25) was used to react with the donor beads. T quantify the amount of Aβtotal in the cell supernatant, monoclonal antibody specific to the N-terminus of Aβ (JRF/AβN/25) was coupled to the receptor beads and biotinylated antibody specific to the mid region of Aβ (biotinylated 4G8) was used to react with the donor beads.
(§5) To obtain the values reported in Table 3, the data are calculated as percentage of the maximum amount of amyloid Beta 42 measured in the absence of the test compound. The sigmoidal dose response curves were analyzed using non-linear regression analysis with percentage of the control plotted against the log concentration of the compound. A 4-parameter equation was used to determine the IC50.
A general note: In Alpha technology, singlet oxygen from a donor bead excites a nearby acceptor bead.

Another data set relates to Aβtotal. The experiment in a line: Screening for γ-secretase-modulating activity in SKNBE2 cells carrying APP 695 wild type: Aβtotal in cell supernatant (Alphalisa). The settings on record: Homo sapiens, overnight incubation. The format is cell-based. Here is the method:
as §1, §2, §3, §4, §5

Regarding `COc1ccc(F)c(C2CCCn3nc(Nc4ccc(-c5ccnc(C)c5)c(F)c4)nc32)c1` (stereo not shown) [Compound 184, 8-(2-fluoro-5-methoxyphenyl)-N-[3-fluoro-4-(2-methyl-4-pyridinyl)phenyl]-5,6,7,8-tetrahydro-[1,2,4]triazolo[1,5-a]pyridin-2-amine], the melting point (as a rule, the temperature, or range, at which the solid turns liquid) turned out to be 221.5 °C. Further, in the data set with Aβ42, inhibition was half-maximal at 23 nM (IC50). The IC50 (in general, the concentration at which inhibition is half-maximal) in the data set with Aβtotal was above 10000 nM.
`COc1cc(Nc2nc3n(n2)CCCC3c2ccccc2F)ccc1-c1ccnc(C)c1` (stereo not shown) [Compound 99, 8-(2-fluorophenyl)-5,6,7,8-tetrahydro-N-[3-methoxy-4-(2-methyl-4-pyridinyl)phenyl]-[1,2,4]triazolo[1,5-a]pyridin-2-amine] displayed a melting point of 214.9 °C. Also, the IC50 in the data set on Aβ42 is 50 nM. Also, the IC50 in the data set with Aβtotal was above 10000 nM.
The like results for `COc1cc(C2CCCn3nc(Nc4ccc(-c5ccnc(C)c5)c(OC)c4)nc32)ccc1F` (stereo not shown) [Compound 107, 8-(4-fluoro-3-methoxyphenyl)-5,6,7,8-tetrahydro-N-[3-methoxy-4-(2-methyl-4-pyridinyl)phenyl]-[1,2,4]triazolo[1,5-a]pyridin-2-amine] were, in that order, 147.4 °C, 32 nM and above 15000 nM.
For the compound `COc1cc(Nc2nc3n(n2)CCCC3c2ccc(C(F)(F)F)cc2)ccc1-n1cnc(C)c1` (stereo not shown) [Compound 50, 5,6,7,8-tetrahydro-N-[3-methoxy-4-(4-methyl-1H-imidazol-1-yl)phenyl]-8-[4-(trifluoromethyl)phenyl][1,2,4]triazolo[1,5-a]pyridin-2-amine], the melting point is 229.7 °C. The same compound came in with a concentration for half-maximal inhibition (IC50) in the data set on Aβ42 of 19 nM. This compound also returned an IC50 in the data set with Aβtotal of 8130 nM.
Regarding `COc1ccc(F)c(C2CCCn3nc(Nc4ccc(-c5ccnc(C)c5)cc4)nc32)c1` (stereo not shown) [Compound 183, 8-(2-fluoro-5-methoxyphenyl)-5,6,7,8-tetrahydro-N-[4-(2-methyl-4-pyridinyl)phenyl]-[1,2,4]triazolo[1,5-a]pyridin-2-amine], the melting point was determined as 204.6 °C. Besides, the IC50 with Aβ42 came out at 41 nM. In the data set on Aβtotal, this compound came in with an IC50 above 10000 nM.
The like results for `Cc1cc(-c2ccc(Nc3nc4c(-c5ccccc5Cl)cccn4n3)cc2F)ccn1` [Compound 25, 8-(2-chlorophenyl)-N-[3-fluoro-4-(2-methyl-4-pyridinyl)phenyl]-[1,2,4]triazolo[1,5-a]pyridin-2-amine] were, in that order, 251 °C, 15 nM and above 10000 nM.
For `COc1cc(Nc2nc3c(-c4cccc(C(F)(F)F)c4)nccn3n2)ccc1-n1cnc(C)c1` [Compound 22, N-[3-methoxy-4-(4-methyl-1H-imidazol-1-yl)phenyl]-8-[3-(trifluoromethyl)phenyl]-[1,2,4]triazolo[1,5-a]pyrazin-2-amine], the melting point was found to be 199 °C. Also, 40 nM corresponded to half-maximal inhibition in the data set on Aβ42 (IC50). Also, in the data set with Aβtotal, half-maximal inhibition (IC50) required 7590 nM.
As to `COc1nc(Nc2nc3c(-c4ccc(F)cc4C)nccn3n2)ccc1-n1cnc(C)c1` [Compound 11, 8-(4-fluoro-2-methylphenyl)-N-[6-methoxy-5-(4-methyl-1H-imidazol-1-yl)-2-pyridinyl]-[1,2,4]triazolo[1,5-a]pyrazin-2-amine], the melting point stood at 278.9 °C.
Still for that read-out and setting: the value for `COc1nc(Nc2nc3c(-c4ccc(F)cc4C)nccn3n2)ccc1-c1ccnc(C)c1` [Compound 12, 8-(4-fluoro-2-methylphenyl)-N-(2-methoxy-2′-methyl[3,4′-bipyridin]-6-yl)-[1,2,4]triazolo[1,5-a]pyrazin-2-amine] was 268.2 °C.
Turning to `Cc1cc(-c2ccc(Nc3nc4n(n3)CCC[C@@H]4c3ccc(F)cc3C)cc2)ccn1` [Compound 93, (8R)-8-(4-fluoro-2-methylphenyl)-5,6,7,8-tetrahydro-N-[4-(2-methyl-4-pyridinyl)phenyl]-[1,2,4]triazolo[1,5-a]pyridin-2-amine], the IC50 in the data set on Aβ42 was 43 nM; in the data set with Aβtotal, above 10000 nM.
